Experimental findings from US20200299671A1, “IMMOBILIZED MULTI-ENZYMATIC HALOGENATION SYSTEM” (priority 2019, published 2020) are described below.

Data set [1] has as its target T1, PltM (Pseudomonas protegens, UniProt Q4KCZ3). Kind of data set: Optimized in vitro PltM halogenation assay (PltM, SsuE, GDH), overnight overall yield by HPLC. In kind it is biochemical. To be noted: for % overall conversion (trial 1) / % overall conversion (trial 2): optimized chlorination reaction, sum of all chlorinated products; for % overall conversion (trial 1): first of two independent reactions; for % overall conversion (trial 2): second of two independent reactions; for conversion upon overnight reaction: optimized conditions. Here is the method: To increase production of halogenated molecules and decrease the amount of NADPH required, the above in vitro assay was optimized by using an additional enzyme, glucose dehydrogenase (GDH). […] The overall yield of halogenation products was determined for reactions run overnight for several substrates (Table 8). Conversion of the substrate to halogenated products was monitored by HPLC at λ=275-320 nm, where the absorbance of molecules is not affected by halogenation, and quantified as fraction of reaction species (%).
The time course experiments were performed in duplicate. Compound 1 was unstable under these optimized conditions, and it was not tested. The in vitro analysis of K87A mutant was performed overnight in 100 μL reaction mixture by using the compound 11 as a substrate. Wild-type PltM was used as a positive control, and no enzyme reaction was used as a negative control. In all above reactions, the compounds were extracted with EtOAc (4×100 μL) and dried under gentle air flow.
(§1) The halogenation reaction products were analyzed by HPLC or LC-MS by injecting 10 μL of each sample. The compounds were separated by Reversed-phase HPLC at the flow rate of 0.2 mL/min by using the following program: eluent A=H2O; eluent B=MeCN; gradient=2% B for 5 min, increase to 100% B over a 30 min period, stay at 100% B for 9 min, decrease to 2% B over a 1 min period, and re-equilibrate the column at 2% B for 30 min.
(§2) For HPLC analysis, the molecules were observed by absorbance at λ=275 nm as described above. As necessary, the following mass spectrometer was operated in negative and positive modes with the following parameters: For negative mode, mass range, 80-600 m/z in profile mode; temperature, 550° C. and ion spray voltage floating, −4500 V, and for positive mode, mass range, 80-600 m/z in profile mode; temperature, 550° C. and ion spray voltage floating, 4500 V. The presence of each compound was analyzed by extracted ion chromatograph (XIC) with the expected mass ±0.05 Da for Assay 1 and Assay 2 and ±0.005 Da for Assay 3 (FIGS. 2A-C, 8-13, and 17-37; Tables 3-4 and 7).

In data set [2] the target is T1, PltM. In kind it is biochemical. Conditions: optimized conditions; for preference for bromination versus iodination: time course. How it is done:
To increase production of halogenated molecules and decrease the amount of NADPH required, the above in vitro assay was optimized by using an additional enzyme, glucose dehydrogenase (GDH). […] Conversion of the substrate to halogenated products was monitored by HPLC at λ=275-320 nm, where the absorbance of molecules is not affected by halogenation, and quantified as fraction of reaction species (%).
The time course experiments were performed in duplicate. […] The in vitro analysis of K87A mutant was performed overnight in 100 μL reaction mixture by using the compound 11 as a substrate. Wild-type PltM was used as a positive control, and no enzyme reaction was used as a negative control. In all above reactions, the compounds were extracted with EtOAc (4×100 μL) and dried under gentle air flow.
To determine the halogenation preference, the kinetic parameters were obtained by the global nonlinear regression analysis of all reaction species using DynaFit software for the following halogenation mechanism:
where E, S, P1, P2 are enzyme, substrate, mono- and dihalogenated product, respectively.

The target of data set [3] is T1, PltM. Kind of data set: In vitro PltM halogenation assay with a single halide salt, substrate profile (Assay 1a-1d), LC-MS. In kind it is biochemical. To be noted: for chlorination by PltM (products identified by LC-MS): NaCl as halide source (Assay 1b); for iodination by PltM (products identified by LC-MS): NaI as halide source (Assay 1d). How it is done: The halogenation assays were carried out similarly to a recently described procedure. For substrate profile determination (Assay 1), 100 μL reactions were carried out in 30 mM sodium phosphate pH 7.4. As a halide source, 200 mM of either NaF (Assay 1a), NaCl (Assay 1b), NaBr (Assay 1c), or NaI (Assay 1d) was used. To ensure that PltM is incapable of fluorinating, an additional 200 μL reaction with 300 mM NaF was run. A 200 μL reaction with 400 mM NaBr was also run to ensure no additional bromination reaction occurred. Each reaction also contained a specified substrate (0.5 mM), FAD (0.2 mM), NADPH (5 mM), PltM (5.5 μM), and SsuE (5.0 μM). The reactions were initiated by adding NADPH under N2. The reaction tubes were tightly closed to avoid contact with air. The reaction mixtures were incubated at 25° C. for 3 h prior to extraction with EtOAc (4×100 μL). The organic layer was dried by a gentle flow of air, and the residue was dissolved in MeOH to prepare 1-10 μg/mL samples for LC-MS analysis.
as §1, §2

Substrate in data set [4]: Nc1cccc(O)c1
Kind of data set: purified protein, by the assay type. To be noted: pH 7.4.

Substrate in data set [5]: Oc1ccc(Cl)c(O)c1
As to the kind of experiment: purified protein, by the assay type. Conditions: other: halogen Cl; labelled species converted to next chlorinated product (for 16: to Cl-16a); pH 7.4.

Substrate in data set [6]: OCc1cc(O)cc(O)c1
As to the kind of experiment: purified protein, by the assay type. In kind it is biochemical. To be noted: pH 7.4.

Substrate in data set [7]: OCc1cc(O)cc(O)c1Cl
Kind of data set: purified protein, by the assay type. Type of data set: biochemical. Conditions: other: halogen Cl; labelled species converted to next chlorinated product (for 16: to Cl-16a); pH 7.4.

Substrate in data set [8]: Oc1cccc(O)c1
As to the kind of experiment: purified protein, by the assay type. Type of data set: biochemical. To be noted: pH 7.4.

[9] abbreviates: other: halogen Br, 16/Br-16b (second mono-brominated product).
The mark [10] stands for this setting: other: halogen Br, labelled species converted to next brominated product (for 16: to Br-16a).
Where [11] appears, read: other: halogen Cl, 16/Cl-16b (second mono-chlorinated product).
[12] abbreviates: other: halogen Cl, labelled species converted to next chlorinated product (for 16: to Cl-16a).

Regarding `Nc1cccc(N)c1` [Compound 18], at PltM [1] (overnight), the “% overall conversion (trial 1)” value is 100, 100% and the “% overall conversion (trial 2)” value is listed as 100, 100%.

Consider `Oc1cccc(O)c1` [Compound 3], for which, at PltM [1] (overnight), the “% overall conversion (trial 1)” value was 100, 100% and the “% overall conversion (trial 2)” value is 100, 100%. Moreover, on PltM [1], the “conversion upon overnight reaction” value is listed as 100%. On PltM [2], the “dibromination by PltM” value is “dibrominated” and the “preference for bromination versus iodination” value was “preference for bromination”.

On to `OCc1cc(O)cc(O)c1` [Compound 11], for which the “bromination by PltM (products identified by LC-MS)” value on PltM [3] (NaBr as halide source (Assay 1c)) is reported as “Mono-bromination of 11 was observed, but not dibromination”. Moreover, the “fluorination by PltM (products identified by LC-MS)” value at PltM [3] (NaF as halide source (Assay 1a)) was “not dibromination or fluorination”. Also, on PltM [1] (overnight), the “% overall conversion (trial 1)” value was 100, 100% and the “% overall conversion (trial 2)” value is recorded as 100, 100%. Further, at PltM [1], the “conversion upon overnight reaction” value amounted to 100%. Further, the “product with wild-type PltM” value at PltM [1] (overnight, conditions of the K87A analysis (positive control)) was “yields diCl-11”. Besides, at PltM [2], the “preference for bromination versus iodination” value is recorded as “for iodination”.

`N[C@@H](Cc1c[nH]c2ccccc12)C(=O)O` [Compound 20, L-Trp]: the “halogenation by PltM (substrate profile)” value on PltM [3] (tested for chlorination and iodination) is reported as “not observed”.

In the case of `CC(=O)c1c(O)cc(O)cc1O` [Compound 15], on PltM [1] (overnight), the “% overall conversion (trial 1)” value was 34% and the “% overall conversion (trial 2)” value stood at 7%.

`Oc1ccc(C=Cc2cc(O)cc(O)c2)cc1` [Compound 23, resveratrol]: at PltM [3], the “chlorination by PltM (products identified by LC-MS)” value is given as “mono-chlorinated” and the “iodination by PltM (products identified by LC-MS)” value (“iodination by PltM” for short) is listed as “mono-iodinated”. In addition, at PltM [1] (overnight), the “% overall conversion (trial 1)” value is reported as 24% and the “% overall conversion (trial 2)” value came out at 20%.

For the molecule `Cc1cc(O)cc(O)c1` [Compound 9], on PltM [1] (overnight), the “% overall conversion (trial 1)” value turned out to be 97% and the “% overall conversion (trial 2)” value came out at 96%.

As to catechin [Compound 24], at PltM [3], the “chlorination by PltM (products identified by LC-MS)” value is on record as “mono-chlorinated” and the “iodination by PltM” value was “mono-iodinated”.

As for `Nc1cccc(O)c1` [Compound 16], at PltM [1] (overnight), the “% overall conversion (trial 1)” value is recorded as 100, 100% and the “% overall conversion (trial 2)” value was 100, 100%. For the same molecule, the “conversion upon overnight reaction” value on PltM [1] turned out to be 100%. On PltM [2], the “dibromination by PltM” value is listed as “dibrominated” and the “preference for bromination versus iodination” value was “preference for bromination”.

Take `CC(Cc1ccc(O)cc1)NCC(O)c1cc(O)cc(O)c1` (centres unmarked) [Compound 22, fenoterol, reference compound]: the “iodination by PltM” value on PltM [3] is on record as “mono-iodinated”.

On to `CC(C)(C)NCC(O)c1cc(O)cc(O)c1` (centres unmarked) [Compound 21, terbutaline, reference compound], for which the “iodination by PltM” value at PltM [3] was “both mono and di”.

B1: PltM (Pseudomonas protegens Pf-5) (protein)
chain: MNQYDVIIIGSGIAGALTGAVLAKSGLNVLILDSAQHPRFSVGEAATPESGFLLRLLSKRFDIPEIAYLSHPDKIIQHVGSSACGIKLGFSFAWHQENAPSSPDHLVAPPLKVPEAHLFRQDIDYFALMIALKHGAESRQNIKIESISLNDDGVEVALSNAAPVKAAFIIDAAAQGSPLSRQLGLRTTEGLATDTCSFFTHMLNVKSYEDALAPLSRTRSPIELFKSTLHHIFEEGWLWVIPFNNHPQGTNQLCSIGFQFNNAKYRPTEAPEIEFRKLLKKYPAIGEHFKDAVNAREWIYAPRINYRSVQNVGDRFCLLPQATGFIDPLFSRGLITTFESILRLAPKVLDAARSNRWQREQFIEVERHCLNAVATNDQLVSCSYEAFSDFHLWNVWHRVWLSGSNLGSAFLQKLLHDLEHSGDARQFDAALEAVRFPGCLSLDSPAYESLFRQSCQVMQQAREQARPVAETANALHELIKEHEAELLPLGYSRISNRFILKV
Usually Km stands for the concentration of substrate that gives half-maximal velocity. As usually defined, the kcat is the maximal rate divided by the concentration of active sites. As usually defined, the kcat/Km is the second-order rate constant that governs catalysis at low substrate concentration. Turning to B1, the Km in data set [4] (setting [9]) was 151 ± 20 µM; in data set [4] (setting [10]) it was 151 ± 20 µM; in data set [4] (setting [11]), 1.1 ± 0.3 µM; in data set [4] (setting [12]), 1.1 ± 0.3 µM; in data set [5] it was 0.11 ± 0.02 µM; in data set [6] (setting [10]) it was “(1.1 ± 0.2) × 10^3 μM”. The Km in data set [6] (setting [12]) is 8.4 ± 0.4 µM; in data set [7], 0.44 ± 0.02 µM; in data set [8] (setting [10]), 0.71 ± 0.2 µM; in data set [8] (setting [12]), “(7.6 ± 1.3) × 10^−2 μM”. Further, the catalytic constant (kcat) in data set [4] (setting [9]) amounted to 0.0367 s⁻¹; in data set [4] (setting [10]), 0.00783 s⁻¹; in data set [4] (setting [11]) it was 0.00367 s⁻¹; in data set [4] (setting [12]) it was 0.00583 s⁻¹; in data set [5] it was 0.00667 s⁻¹; in data set [6] (setting [10]), 0.004 ± 0.000333 s⁻¹. For the same molecule, the turnover number (kcat) in data set [6] (setting [12]) was 0.0267 ± 0.00167 s⁻¹; in data set [7], 0.003 ± 0.000167 s⁻¹; in data set [8] (setting [10]), 0.0317 ± 0.00167 s⁻¹; in data set [8] (setting [12]) it was 2.3 ± 0.1^a min^−1. The kcat/Km was 250 M⁻¹ s⁻¹ in data set [4] (setting [9]); 51.7 M⁻¹ s⁻¹ in data set [4] (setting [10]); 3170 M⁻¹ s⁻¹ in data set [4] (setting [11]); 5170 M⁻¹ s⁻¹ in data set [4] (setting [12]); 58300 M⁻¹ s⁻¹ in data set [5]; 3.67 ± 0.333 M⁻¹ s⁻¹ in data set [6] (setting [10]). Besides, the kcat/Km in data set [6] (setting [12]) is 3170 ± 167 M⁻¹ s⁻¹; in data set [7], 6830 ± 333 M⁻¹ s⁻¹; in data set [8] (setting [10]), 45000 ± 10000 M⁻¹ s⁻¹; in data set [8] (setting [12]), 30 ± 5 ^ min^−1μM^−1.
